Assay results as given in ChEMBL document CHEMBL1201862, “PubChem BioAssay data set” (2004).
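Each compound was tested at five concentrations against cells in 96-well plates for 48 hours. The concentration for 50% growth inhibition is given as GI50.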 Activity calls are given as the source filed them. Cut-off read from the data, not from the text of the source: active = GI50 up to about 1.1 µM and inactive = higher.

Experiments:
Assay in all cases: NCI anticancer screen, dose series, 48 h
OVCAR-4 = system: OVCAR-4
TK-10 = system: TK-10
OVCAR-8 = system: OVCAR-8
HT-29 = system: HT-29
IGROV-1 = system: IGROV-1
BT-549 = system: BT-549
K562 = system: K562
A549 = system: A549
SR = system: SR
SNB-75 = system: SNB-75
PC-3 = system: PC-3
SK-MEL-28 = system: SK-MEL-28
SNB-19 = system: SNB-19
HOP-18 = system: HOP-18
COLO 205 = system: COLO 205
MDA-MB-231 = system: MDA-MB-231
MDA-N = system: MDA-N
CCRF-CEM = system: CCRF-CEM
ACHN = system: ACHN
HCT-116 = system: HCT-116

Compound | GI50 (OVCAR-4) | GI50 (TK-10) | GI50 (OVCAR-8) | GI50 (HT-29) | GI50 (IGROV-1) | GI50 (BT-549) | GI50 (K562) | GI50 (A549) | GI50 (SR) | GI50 (SNB-75) | GI50 (PC-3) | GI50 (SK-MEL-28) | GI50 (SNB-19) | GI50 (HOP-18) | GI50 (COLO 205) | GI50 (MDA-MB-231) | GI50 (MDA-N) | GI50 (CCRF-CEM) | GI50 (ACHN) | GI50 (HCT-116)
CO[C@@H]1[C@H](OC(=O)NC(=O)CCl)CC[C@]2(CO2)[C@H]1[C@@]1(C)O[C@@H]1CC=C(C)C [O-CHLOROACETYLCARBAMOYLFUMAGILLOL] | 14400 nM (inactive) | 18300 nM (inactive) | 15800 nM (inactive) | 5660 nM (inactive) | 12200 nM (inactive) | 14600 nM (inactive) | 12200 nM (inactive) | 7230 nM (inactive) | 5640 nM (inactive) | 7960 nM (inactive) | 10700 nM (inactive) | 12800 nM (inactive) | 12000 nM (inactive) | > 10000 nM (inactive) | 14200 nM (inactive) | 15900 nM (inactive) | 11400 nM (inactive) | 900 nM (active) | 14100 nM (inactive) | 
COC1/C=C\C=C(/C)C(=O)NC2=CC(=O)C(NCCCl)=C(CC(C)CC(OC)C(O)C(C)/C=C(/C)C1OC(N)=O)C2=O (centres undefined) | 2540 nM (inactive) | 1770 nM (inactive) | 115 nM (active) | 15.8 nM (active) | 499 nM (active) | 1250 nM (inactive) | 23.6 nM (active) | 530 nM (active) | 34.1 nM (active) | 413 nM (active) | 656 nM (active) | 37.3 nM (active) | 927 nM (active) | 30.8 nM (active) | < 12.6 nM (active) | 2000 nM (inactive) | 332 nM (active) | 99.3 nM (active) | 281 nM (active) | 48.9 nM (active)
